Legend:
[1] = Luminescence of probe in the presence of H2O2; assay type: physicochemical; settings: 5 µM probe, 0.5 mM H2O2, HEPES buffer pH 8, 37 °C, time-gated emission
[2] = tested on: supernatant from the P. aeruginosa strain producing LasB; assay: Luminescence of probe with LasB-secreting P. aeruginosa supernatant with and without EDTA; assay type: biochemical, Pseudomonas aeruginosa
[3] = tested on: supernatant from P. aeruginosa strain producing LasB; assay type: biochemical, Pseudomonas aeruginosa; settings: P1[Tb]: 0.5 mM probe, 50 mM CaCl2, HEPES buffer, 9 µL supernatant, RT, 1 h before injection
[4] = Luminescence of probe in the presence of glutathione; assay type: physicochemical; settings: 5 µM probe, 100 µM GSH, HEPES buffer pH 8, 37 °C, time-gated emission
LasB = LasB (Pseudomonas aeruginosa, UniProt P14756); settings: 1, 5, 7.5, 10 µM probe, 1 mM CaCl2, 60.6 nM (2 µg/mL) LasB, 10 mM HEPES pH 8.0, 37 °C, time-gated emission every 15 min for 10 h, fit to hit-and-run model (Dynafit)
E. coli supernatant = settings: 10 µM probe, 1 mM CaCl2, HEPES buffer, 10 µL E. coli supernatant, 20 h at 37 °C, time-gated emission
[5] = Luminescence of probe in the presence of pyocyanin and P. aeruginosa supernatant; assay type: physicochemical

Sequence of LasB (P14756 198-498): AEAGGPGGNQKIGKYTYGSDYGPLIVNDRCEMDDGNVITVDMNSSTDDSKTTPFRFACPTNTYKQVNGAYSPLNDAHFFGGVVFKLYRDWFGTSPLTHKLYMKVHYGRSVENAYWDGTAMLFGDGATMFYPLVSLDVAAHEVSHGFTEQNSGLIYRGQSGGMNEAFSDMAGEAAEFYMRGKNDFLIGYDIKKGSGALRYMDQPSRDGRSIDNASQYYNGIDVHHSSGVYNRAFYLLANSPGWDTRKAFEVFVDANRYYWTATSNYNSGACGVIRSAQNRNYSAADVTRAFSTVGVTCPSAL

EGLAEW [P1[Tb], green-emitting metallopeptide: DO3A-Tb(III) complex at N-terminus of EGLAEW, Trp as sensitizing unit]
change of luminescence 20 h after addition of H2O2 [1]: remained constant
luminescence response to P. aeruginosa supernatant added after incubation in 1.2% FBS: gradual reduction in the luminescence emission
time of stable luminescence in 1.2% FBS (10 µM probe, 1.2% v/v fetal bovine serum in HEPES buffer, 37 °C, time-gated emission every hour for 12 h): at least 12 h
reduction of luminescence 3 h after supernatant addition, in the absence of EDTA [2]: approximately 90%
reduction of luminescence 3 h after supernatant addition, with EDTA [2]: approximately 30%
cleavage of probe by wild-type P. aeruginosa supernatant (HPLC-MS) [3]: cleaved at the G-L bond
change of luminescence 20 h after addition of glutathione [4]: remained constant
apparent rate constant ksub (equivalent to specificity constant kcat/Km) (LasB): 0.438 ± 0.007 μM^–1min^–1
change of luminescence with E. coli supernatant (E. coli supernatant): no changes in the luminescence
probe activity toward P. aeruginosa supernatant in the presence of pyocyanin [5]: remained active
reduction of emission band intensity on incubation with pyocyanin ([5]; 5 µM probe, 1 µM pyocyanin, HEPES buffer, 37 °C, time-gated emission): approximately 20%

— paper PMC11519908, “Luminescent Ln(III)-Metallopeptide Sensors for Monitoring Pseudomonas aeruginosa Elastase B Activity in Complex Biological Media” (ACS Sensors, 2024)
